Results as given in ChEMBL document CHEMBL1201862, “PubChem BioAssay data set” (2004).
Active and inactive are the calls of the source.

Assays:
[1] = target: T1, Mannose-6-phosphate isomerase (Homo sapiens, UniProt P34949); test: human PMI inhibitors, high substrate, primary screen, biochemical, fluorescence intensity, high mannose 6-phosphate (AID 1220)
T1 sequence (P34949 whole entry): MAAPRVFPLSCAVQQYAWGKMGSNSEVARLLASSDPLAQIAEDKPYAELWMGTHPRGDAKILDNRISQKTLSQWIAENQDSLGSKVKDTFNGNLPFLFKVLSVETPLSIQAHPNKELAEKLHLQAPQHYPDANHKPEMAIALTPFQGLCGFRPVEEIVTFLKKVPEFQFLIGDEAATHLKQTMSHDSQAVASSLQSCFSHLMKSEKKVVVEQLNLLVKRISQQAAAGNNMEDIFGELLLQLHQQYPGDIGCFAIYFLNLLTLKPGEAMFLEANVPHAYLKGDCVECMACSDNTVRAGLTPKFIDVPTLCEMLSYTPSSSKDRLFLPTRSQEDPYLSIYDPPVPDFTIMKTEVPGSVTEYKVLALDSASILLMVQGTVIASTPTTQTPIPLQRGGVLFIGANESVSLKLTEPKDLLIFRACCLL

[2] = target: T2, Long-chain-fatty-acid--AMP ligase FadD28 (Mycobacterium tuberculosis, UniProt P9WQ59); test: Fluorescence polarization aasay to screen for inhibitors that compete for the binding of FadD28 to a bisubstrate Measured in Biochemical System Using Plate Reader - 2147-01_Inhibitor_Dose_CherryPick_Activity.; assay type: functional, Mycobacterium tuberculosis H37Rv
T2 sequence (P9WQ59 whole entry): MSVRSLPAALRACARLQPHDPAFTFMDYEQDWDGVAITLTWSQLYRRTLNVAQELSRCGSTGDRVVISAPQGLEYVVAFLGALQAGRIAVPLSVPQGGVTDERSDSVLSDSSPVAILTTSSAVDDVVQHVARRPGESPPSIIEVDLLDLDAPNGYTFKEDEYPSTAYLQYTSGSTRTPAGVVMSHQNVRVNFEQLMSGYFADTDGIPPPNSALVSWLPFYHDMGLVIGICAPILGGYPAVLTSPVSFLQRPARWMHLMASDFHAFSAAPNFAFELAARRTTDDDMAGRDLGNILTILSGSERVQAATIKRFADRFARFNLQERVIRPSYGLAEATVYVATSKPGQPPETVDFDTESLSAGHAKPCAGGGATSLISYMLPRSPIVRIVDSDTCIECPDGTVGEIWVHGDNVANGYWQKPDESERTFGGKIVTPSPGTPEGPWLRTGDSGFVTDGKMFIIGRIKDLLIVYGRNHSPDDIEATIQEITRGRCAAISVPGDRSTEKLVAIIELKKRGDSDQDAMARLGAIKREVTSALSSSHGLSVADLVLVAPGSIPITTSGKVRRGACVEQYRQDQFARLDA

[3] = target: T3, Caspase-3 (Homo sapiens, UniProt P42574); assay type: functional;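 also: Dose-response selectivity test against caspase-3 for candidate inhibitors of sentrin-specific proteases (SENPs)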
T3 sequence (P42574 whole entry): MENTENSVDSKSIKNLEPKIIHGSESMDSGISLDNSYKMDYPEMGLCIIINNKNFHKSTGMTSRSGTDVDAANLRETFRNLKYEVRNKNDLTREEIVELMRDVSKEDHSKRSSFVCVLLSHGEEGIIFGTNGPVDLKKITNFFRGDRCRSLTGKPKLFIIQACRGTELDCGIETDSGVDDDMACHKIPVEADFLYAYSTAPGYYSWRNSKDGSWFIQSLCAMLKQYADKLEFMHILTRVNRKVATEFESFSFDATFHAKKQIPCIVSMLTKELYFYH

[4] = target: T4, Sentrin-specific protease 7 (Homo sapiens, UniProt Q9BQF6); assay type: functional;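 also: Luminescence-based dose-response confirmation of ultra-high-throughput screening hits, measuring inhibition of SENP7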
T4 sequence (Q9BQF6 whole entry): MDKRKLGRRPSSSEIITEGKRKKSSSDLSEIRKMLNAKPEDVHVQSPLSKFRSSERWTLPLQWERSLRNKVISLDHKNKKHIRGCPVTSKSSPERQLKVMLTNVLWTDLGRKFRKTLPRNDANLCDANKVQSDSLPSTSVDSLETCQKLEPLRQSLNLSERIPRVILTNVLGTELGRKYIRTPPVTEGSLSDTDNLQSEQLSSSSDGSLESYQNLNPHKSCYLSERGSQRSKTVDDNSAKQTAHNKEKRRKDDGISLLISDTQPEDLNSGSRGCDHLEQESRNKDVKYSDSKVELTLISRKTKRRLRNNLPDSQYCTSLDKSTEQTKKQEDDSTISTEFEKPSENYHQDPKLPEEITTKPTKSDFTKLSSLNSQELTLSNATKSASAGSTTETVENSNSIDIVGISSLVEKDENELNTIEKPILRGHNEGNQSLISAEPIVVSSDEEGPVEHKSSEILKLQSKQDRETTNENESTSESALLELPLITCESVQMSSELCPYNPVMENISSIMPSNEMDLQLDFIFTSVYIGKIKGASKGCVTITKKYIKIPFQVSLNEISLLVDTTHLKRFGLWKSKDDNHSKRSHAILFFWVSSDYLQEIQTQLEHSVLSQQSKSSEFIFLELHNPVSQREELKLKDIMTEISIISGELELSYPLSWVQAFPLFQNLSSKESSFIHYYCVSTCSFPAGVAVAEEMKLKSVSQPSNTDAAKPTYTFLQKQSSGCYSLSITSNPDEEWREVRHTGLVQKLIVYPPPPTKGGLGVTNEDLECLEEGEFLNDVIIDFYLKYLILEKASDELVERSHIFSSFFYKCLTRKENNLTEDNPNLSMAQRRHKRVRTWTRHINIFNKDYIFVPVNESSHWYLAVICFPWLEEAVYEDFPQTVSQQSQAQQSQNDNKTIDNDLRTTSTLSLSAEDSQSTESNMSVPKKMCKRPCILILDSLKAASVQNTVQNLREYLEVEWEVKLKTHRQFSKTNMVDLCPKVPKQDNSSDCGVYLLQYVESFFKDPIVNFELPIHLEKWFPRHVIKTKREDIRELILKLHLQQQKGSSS

[5] = target: T5, Sentrin-specific protease 6 (Homo sapiens, UniProt Q9GZR1); assay type: functional;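 also: Luminescence-based dose-response confirmatory assay of SENP6 inhibition, following up an ultra-high-throughput screen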
T5 sequence (Q9GZR1 whole entry): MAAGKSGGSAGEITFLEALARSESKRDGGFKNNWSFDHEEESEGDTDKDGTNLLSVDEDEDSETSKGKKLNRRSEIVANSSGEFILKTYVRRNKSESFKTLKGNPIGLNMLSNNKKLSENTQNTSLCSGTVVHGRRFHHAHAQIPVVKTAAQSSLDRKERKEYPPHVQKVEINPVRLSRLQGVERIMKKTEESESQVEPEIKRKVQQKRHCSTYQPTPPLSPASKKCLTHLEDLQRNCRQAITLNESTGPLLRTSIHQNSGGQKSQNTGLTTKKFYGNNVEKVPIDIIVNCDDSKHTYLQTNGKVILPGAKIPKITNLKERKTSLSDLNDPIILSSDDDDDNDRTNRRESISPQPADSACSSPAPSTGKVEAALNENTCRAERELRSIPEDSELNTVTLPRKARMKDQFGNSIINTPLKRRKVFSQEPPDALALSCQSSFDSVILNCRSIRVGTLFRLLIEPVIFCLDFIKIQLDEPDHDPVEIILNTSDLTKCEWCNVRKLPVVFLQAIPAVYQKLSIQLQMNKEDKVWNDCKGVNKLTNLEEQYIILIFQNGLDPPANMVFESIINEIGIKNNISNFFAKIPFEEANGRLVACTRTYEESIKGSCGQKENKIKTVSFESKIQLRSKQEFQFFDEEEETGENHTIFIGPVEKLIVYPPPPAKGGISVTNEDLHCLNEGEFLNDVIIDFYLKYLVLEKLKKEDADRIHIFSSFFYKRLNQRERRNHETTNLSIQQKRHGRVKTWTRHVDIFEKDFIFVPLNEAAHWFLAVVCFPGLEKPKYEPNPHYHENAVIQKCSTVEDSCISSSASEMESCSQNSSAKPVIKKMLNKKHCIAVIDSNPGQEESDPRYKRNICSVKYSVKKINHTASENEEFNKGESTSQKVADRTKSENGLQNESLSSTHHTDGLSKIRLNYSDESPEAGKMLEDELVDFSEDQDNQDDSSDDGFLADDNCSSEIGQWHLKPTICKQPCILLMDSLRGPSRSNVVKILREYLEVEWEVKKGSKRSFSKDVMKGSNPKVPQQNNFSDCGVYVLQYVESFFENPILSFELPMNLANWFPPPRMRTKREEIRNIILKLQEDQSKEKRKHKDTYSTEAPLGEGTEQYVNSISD

[6] = target: T6, Sentrin-specific protease 8 (Homo sapiens, UniProt Q96LD8); assay type: functional;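 also: luminescence read-out of SENP8 inhibition, dose-response confirmation following an ultra-high-throughput screen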
T6 sequence (Q96LD8 whole entry): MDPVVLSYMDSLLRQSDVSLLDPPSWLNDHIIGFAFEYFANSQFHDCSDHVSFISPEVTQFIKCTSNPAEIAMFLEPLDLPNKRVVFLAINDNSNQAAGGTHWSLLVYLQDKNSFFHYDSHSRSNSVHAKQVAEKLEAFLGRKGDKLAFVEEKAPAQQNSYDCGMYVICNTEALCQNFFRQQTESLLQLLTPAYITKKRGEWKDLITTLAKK

[7] = target: T7, Fructose-bisphosphate aldolase (Mycobacterium tuberculosis, UniProt P9WQA3); test: Fluorescence-based biochemical high throughput dose response assay for inhibitors of the fructose-bisphosphate aldolase (FBA) of M. tuberculosis.; assay type: functional
T7 sequence (P9WQA3 whole entry): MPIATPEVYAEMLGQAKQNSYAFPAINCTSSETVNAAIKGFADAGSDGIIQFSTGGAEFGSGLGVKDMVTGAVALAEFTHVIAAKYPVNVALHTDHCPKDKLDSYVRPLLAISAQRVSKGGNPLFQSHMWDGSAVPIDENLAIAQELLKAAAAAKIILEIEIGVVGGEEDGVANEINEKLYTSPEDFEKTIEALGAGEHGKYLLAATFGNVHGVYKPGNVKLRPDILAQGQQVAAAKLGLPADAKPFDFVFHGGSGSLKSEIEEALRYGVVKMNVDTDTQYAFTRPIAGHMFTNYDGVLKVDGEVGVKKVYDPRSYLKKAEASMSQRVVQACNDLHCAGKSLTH

[8] = test system: Cryptococcus neoformans; test: PubChem AID 686997; assay type: functional, organism-based; conditions: Cryptococcus neoformans
[9] = ADAM10 inhibitors, peptide cleavage, dose response, biochemical, QFRET (AID 743254);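 also: ADAM10 enzyme with the DM2 quenched FRET peptide as substrate; EDANS fluorescence gain as the protease cuts the substrate; inhibitor potency against ADAM10 proteolytic activity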
[10] = target: T8, Protein skinhead-1 (Caenorhabditis elegans, UniProt P34707); assay type: functional
T8 sequence (P34707 whole entry): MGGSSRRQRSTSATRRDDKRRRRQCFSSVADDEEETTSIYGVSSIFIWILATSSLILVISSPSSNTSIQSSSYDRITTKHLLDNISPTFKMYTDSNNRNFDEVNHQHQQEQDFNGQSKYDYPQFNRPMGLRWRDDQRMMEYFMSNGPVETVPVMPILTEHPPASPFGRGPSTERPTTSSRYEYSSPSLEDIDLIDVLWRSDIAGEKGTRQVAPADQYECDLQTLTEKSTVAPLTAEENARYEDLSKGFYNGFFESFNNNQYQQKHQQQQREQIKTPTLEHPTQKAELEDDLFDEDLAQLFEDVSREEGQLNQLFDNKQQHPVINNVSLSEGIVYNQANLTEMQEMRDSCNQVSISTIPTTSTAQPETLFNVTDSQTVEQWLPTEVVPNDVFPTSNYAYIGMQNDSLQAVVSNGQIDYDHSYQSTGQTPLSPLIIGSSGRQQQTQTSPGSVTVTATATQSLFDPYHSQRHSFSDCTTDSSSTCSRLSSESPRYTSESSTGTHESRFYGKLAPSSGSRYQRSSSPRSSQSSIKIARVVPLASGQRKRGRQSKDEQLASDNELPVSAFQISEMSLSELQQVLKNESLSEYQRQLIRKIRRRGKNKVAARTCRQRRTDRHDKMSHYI

[11] = target: T9, Corticotropin-releasing factor receptor 2/Corticotropin-releasing factor-binding protein (Homo sapiens, UniProt P24387+Q13324); test: Dose Response confirmation of uHTS hits for small molecule antagonists of the CRF-binding protein and CRF-R2 receptor complex.; assay type: functional; conditions: read-out: IC50_Mean
T9 sequence (Q13324 whole entry): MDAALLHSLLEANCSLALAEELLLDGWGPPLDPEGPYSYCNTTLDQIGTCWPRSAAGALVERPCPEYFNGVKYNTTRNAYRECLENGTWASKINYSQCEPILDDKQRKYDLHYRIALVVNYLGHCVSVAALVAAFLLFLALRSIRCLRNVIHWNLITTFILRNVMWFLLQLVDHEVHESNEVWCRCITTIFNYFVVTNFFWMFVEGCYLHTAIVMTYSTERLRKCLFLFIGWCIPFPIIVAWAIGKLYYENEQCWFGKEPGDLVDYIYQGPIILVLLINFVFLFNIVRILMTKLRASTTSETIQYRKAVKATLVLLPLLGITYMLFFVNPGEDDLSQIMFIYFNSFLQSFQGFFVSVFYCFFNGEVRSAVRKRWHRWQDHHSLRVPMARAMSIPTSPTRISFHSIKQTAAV
T9 sequence (P24387 whole entry): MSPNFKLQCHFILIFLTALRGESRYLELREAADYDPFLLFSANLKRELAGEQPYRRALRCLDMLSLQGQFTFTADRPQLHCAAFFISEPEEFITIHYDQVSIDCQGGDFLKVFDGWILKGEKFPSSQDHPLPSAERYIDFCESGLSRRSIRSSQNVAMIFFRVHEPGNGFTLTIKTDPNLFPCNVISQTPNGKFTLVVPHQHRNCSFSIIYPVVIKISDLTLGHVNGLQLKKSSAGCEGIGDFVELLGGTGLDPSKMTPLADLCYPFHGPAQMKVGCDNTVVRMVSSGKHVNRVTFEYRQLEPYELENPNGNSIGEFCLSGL

[12] = target: T9, Corticotropin-releasing factor receptor 2/Corticotropin-releasing factor-binding protein; test: activators of CRF receptor 2 with binding protein – uHTS hits, confirmation (AID 602473); assay type: functional; conditions: read-out: EC50_Mean
[13] = CRF-BP/CRF-R2 complex antagonists, dose response, cell-based, uHTS hits, 384-well (AID 651639); assay type: functional, Homo sapiens; conditions: read-out: IC50_Mean

Oc1ccccc1Oc1c(F)c(F)nc(N2CCCC2)c1F
IC50 [1]: > 50 µM (not active) | AC50 [2]: 42.5 µM (active)

CC(=O)N1C(=O)/C(=C2\SC(=S)N(NC(=O)c3ccc(O)cc3)C2=O)c2ccccc21
IC50 [3]: 12.9 µM (active) | IC50 [4]: 35.3 µM (active) | IC50 [5]: 3.1 µM (active) | IC50 [6]: 10.3 µM (active) | IC50 [7]: 4.74 µM (active)

Cc1cc(C)c2nc(N3CCN(C(=O)c4cccs4)CC3)sc2c1
AC50 [8]: > 70 µM (inactive)

CC(C)(C)OC(=O)NCc1ccc(CNC(=O)c2[nH]cnc2C(=O)N[C@@H](Cc2ccccc2)C(=O)OC(C)(C)C)cc1
IC50 [9]: 9.77 µM (active)

Nc1nnc(/C=C/c2ccccc2Cl)s1
IC50 [7]: 1.59 µM (active)

CC(C)CC(C(=O)Oc1ccc2c3c(c(=O)oc2c1)CCC3)N1C(=O)c2ccccc2C1=O (stereo unspecified)
IC50 [10]: > 100 µM (inactive) | IC50 [7]: 1.27 µM (active)

CN(Cc1ccc([N+](=O)[O-])cc1)c1ccccc1
IC50 [11]: 2.92 µM (active) | EC50 [12]: > 53 µM (inactive) | IC50 [13]: 7.06 µM (active) | AC50 [2]: > 100 µM (inactive)
